The source made the active and inactive calls. The rule behind the calls is not given here.
What was measured:
[1] = test system: Human immunodeficiency virus 1; assay: HIV antiviral activity; assay type: functional
[2] = target: Human immunodeficiency virus type 1 reverse transcriptase (Human immunodeficiency virus 1) (UniProt Q72547); assay: Antiviral activity as inhibition of HIV reverse transcriptase; Inactive
[3] = target: Human immunodeficiency virus type 1 reverse transcriptase (Human immunodeficiency virus 1) (UniProt Q72547); assay: Antiviral activity as inhibition of HIV reverse transcriptase; Active
[4] = target: Human immunodeficiency virus type 1 protease (Human immunodeficiency virus 1) (UniProt Q72874); assay: Antiviral activity as inhibition of HIV protease; Active
[5] = target: Human immunodeficiency virus type 1 integrase (Human immunodeficiency virus 1) (UniProt Q7ZJM1); assay: Antiviral activity as inhibition of HIV integrase; Inactive
Chain of Human immunodeficiency virus type 1 integrase (Human immunodeficiency virus 1) (Q7ZJM1 as listed by the source): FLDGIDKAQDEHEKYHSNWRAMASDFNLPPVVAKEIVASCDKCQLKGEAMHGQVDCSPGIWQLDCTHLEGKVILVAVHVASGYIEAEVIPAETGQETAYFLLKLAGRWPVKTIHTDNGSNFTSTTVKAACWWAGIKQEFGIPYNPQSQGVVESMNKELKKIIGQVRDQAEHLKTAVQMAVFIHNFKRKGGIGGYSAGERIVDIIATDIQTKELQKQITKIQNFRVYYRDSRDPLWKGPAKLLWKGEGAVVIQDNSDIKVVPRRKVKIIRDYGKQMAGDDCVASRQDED

[6] = target: Human immunodeficiency virus type 1 protease (Human immunodeficiency virus 1) (UniProt Q72874); assay: Antiviral activity as inhibition of HIV protease; Inactive

CCC(F)CC
Average activity [1]: 56

CCC(I)CC
Average activity [1]: 56

CCC1OC1C (centres undefined)
Average activity [1]: 56

C=C/C(=C\C)C(=O)N/C(C)=C/C
Average activity [1]: 37

CC1C(=O)NC(=O)N(COCCO)C1Sc1cccc(O)c1 (centres undefined)
Activity [2]: inactive

CC(=O)NC(=O)N(C)C1CCC(N=[N+]=[N-])O1 (centres undefined)
Average activity [1]: 64

C=C/C(=C\C)NC(C)=O
Average activity [1]: 60

CCOCN1C(=O)NC(=O)C(C)C1Sc1ccccc1 (centres undefined)
Activity [3]: Active

CCCCCCc1cc2c(cc1O)CC(=O)C(C(c1ccccc1)C1COc3cc(O)c(CCCCCC)c(O)c3C1)=C2O (centres undefined)
Activity [4]: Active

C=C/C=C\C=C\[S+]([O-])/C=C/C (centres undefined)
Average activity [1]: 51

O=C1C2=C(C(=O)c3ccccc31)C(O)(S(=O)(=O)O)C(O)(S(=O)(=O)O)C1N=CC=CC21 (centres undefined)
Activity [4]: Active

O=c1c(O)c(-c2ccc(O)cc2)oc2cc(O)cc(O)c12
Activity [5]: inactive

C=C/C=C\C=C\[PH](=O)/C=C/C (centres undefined)
Average activity [1]: 51

CCN1c2ccccc2C2NC=C(C)C2c2ccc(OC)cc21 (centres undefined)
Activity [3]: Active

C=C/C=C/C=C/S(=O)(=O)/C=C/C
Average activity [1]: 51

O=C(O)C1Cc2cc3c(cc2C(O)C1CO)OCO3 (centres undefined)
Activity [6]: inactive

C=C/C=C\C=C\C(=O)/C=C/C
Average activity [1]: 51

C=CC(=C\C)/N=C(\C)S
Average activity [1]: 60

CCC(Cl)CC
Average activity [1]: 56

Source: ChEMBL document CHEMBL1132617, “Diversity analysis of 14 156 molecules tested by the National Cancer Institute for anti-HIV activity using the quantitative structure-activity relational expert system MCASE” (J Med Chem, 1999)
